# Measured values taken from US20080122428A1, “Optimized Determination of Voltage Changes Using a Voltage-Sensitive Dye” (Max-Planck-Gesellschaft zur Forderungder Wissenschaften e. …, priority 2003, published 2008).
# Where “and” joins values, the source holds several entries; their conditions need not be identical. Identical values can stand only once.
# How the values were obtained:
# [1] = tested on: Retzius cells (leech neurons); settings: cited from earlier work; for shift of the excitation spectrum per membrane voltage: Kuhn and Fromherz, 2003
# HEK293 cells [2] = assay: Voltage sensitivity in HEK293 cells by extracellular electric field, laser line scans with one- or two-photon excitation; format: cell-based
# Protocol: HEK293 cells (DSMZ GmbH, Braunschweig, Germany) were cultured using standard methods on glass coverslips (diameter 24 mm, Assistent, Glaswarenfabrik Karl Hecht KG, Sondheim, Germany). The coverslips were coated with fibronectin (No. 68885, Boehringer-Mannheim, Germany) in PBS (140 mM NaCl, 2.7 mM KCl, 1.5 mM KH2PO4, 6.5 mM Na2HPO4×2H2O) by incubation for 45 min in a 10 μg/ml fibronectin solution and a single subsequent wash with PBS. The cells were plated at densities of 15000 cells per coverslip and were used for up to three days after plating, while the cell density was still low. All measurements were done in a Ringer solution containing (in mM) 135 NaCl, 5.4 KCl, 1.0 MgCl2, 1.8 CaCl2 and 5.0 Hepes, adjusted to pH 7.2 with NaOH.
# ANNINE-6 (FIG. 19a) was dissolved in a solution of 20% Pluronic F-127 DMSO (P-3000, Molecular Probes, Eugene, Oreg.) at a concentration of 0.5 mg/ml and sonicated for 15 min. The glass coverslip with the HEK293 cells was taken out of the culture well, exposed to the staining solution (dye stock solution diluted 1:100 into Ringer) for 5 min and finally washed with pure Ringer solution.
# To change the voltage across the cell membrane we applied an extracellular electric field. This method (Gross et al., 1986) has a somewhat reduced voltage calibration accuracy but is much simpler than whole-cell recordings, for example, permitting the transfer of the recording chamber between microscope setups thereby allowing the exploration of a wider parameter range. Our custom-made chamber (FIG. 19b) consists of a 2.6 mm wide, and 30 mm long slit in a 0.5 mm thick PMMA (Plexiglas) plate. Two chlorided silver wires (diameter 0.127 mm, Cat. No. 7860, A-M Systems, INC., Everett, Wash.) for the application of the electrical field were fixed to the long edges of the channel with two-component epoxy resin glue (plus sofortfest, UHU, Bühl, Germany). This chamber was sealed on the bottom with a clean coverslip (24 mm×50 mm) attached with silicone grease (Bayer-silicone, Bayer AG, Leverkusen, Germany). The coverslip with the stained HEK293 cells was dried around the edges to get a watertight seal with silicone grease and then mounted cells down on the top side of the chamber. Two openings allowed the continuous perfusion (about 2 ml/min) with physiological saline using a gravity-fed perfusion system.
# The voltage stimuli were generated by an arbitrary waveform generator (model 395, wavetek, Ismaning, Germany) and amplified by a custom-built push-pull circuit (using two operational amplifiers, OPA547, Texas Instruments Inc., Texas, USA, FIG. 19c). To avoid electrolysis at the electrodes and ionophoresis of cell-surface components all applied voltage waveforms were purely AC. Short pulses were used to minimize heating (FIG. 19d). The application of the pulse protocol was synchronized to the start of line scan acquisition.
# For one-photon excitation we used laser scanning microscopes (Zeiss LSM 510 NLO and Leica TCS SP2) with Ar-ion laser excitation (458 nm, 488 nm, or 514 nm). We used laser illumination instead of, for example, Xe arc-lamps because narrow spectral width and high intensities are needed to obtain sufficient excitation of the dye at the spectral edge. The excitation light at the Zeiss microscope was coupled in via the main dichroic beam splitters (HFT 458/514, reflecting the 458 nm and 514 nm laser lines or HFT KP 700/488, a combined 700 nm short pass and 488 nm reflector). The emitted light was filtered by a long-pass filter (LP560). The Leica microscope uses an acousto-optical main beam splitter and fluorescence was collected in the range of 520 nm to 800 nm. The maximal excitation intensities at the sample were for the Zeiss (Leica) microscope: 1.3 mW (1.5 mW) at 514 nm, 200 μW (250 μW) at 488 nm and 28 μW (35 μW) at 458 nm. The pinhole was completely opened up (8.5 airy units) to collect as much light as possible. […]
# HEK293 cells [3] = assay: Tight-seal whole-cell voltage-clamp recordings of HEK293 cells, sensitivity at 514 nm; format: cell-based; settings: four cells, voltage jumps +/−25, +/−50, +/−75 mV
# Protocol: Whole-cell tight-seal voltage-clamp recordings on HEK293 cells were preformed using pipettes with a resistance of around 6 MOhm and an epc9 amplifier (HEKA, Göttingen, Germany).
# To test our assumption about the extracellular stimulation the sensitivity at 514 nm was tested by controlling the membrane voltage directly using tight-seal whole-cell recordings of HEK293 cells (FIG. 22). The mean sensitivity measured in four cells using voltage jumps of +/−25, +/−50 and +/−75 mV is −0.37±0.02%/mV, in agreement with the results achieved by the external electric field method.
# HEK293 cells [4] = assay: Example 4: HEK293 cells stained by bath application, alternating external electric fields, 1 kHz line scans; format: cell-based
# Description: ANNINE-6 is a new, completely anellated hemicyanine dye. […] Several biological preparations were used for testing. First, HEK293 cells were stained by bath application of the dye. Alternating external electric fields generated by applying voltages between two Ag/AgCl-wires in a closed chamber (1). To achieve the high light intensities, which are necessary to excite the dye at the very red edge of the excitation spectrum, we used laser scanning microscopes with Ar-Ion Laser for one-photon excitation (488 nm, 514 nm) and Ti:Sapphire Laser for two-photon excitation (976 nm). The fluorescence changes measured with 1 kHz line scans followed the applied voltage, which was alternated every 10 ms, without discernible delay. We found relative fluorescence increases of more that 60%/100 mV for hyperpolarizing membrane potential changes and decreases of more than 40%/100 mV for depolarizing membrane potential changes at 514 nm excitation wavelength. The asymmetry of the fluorescence change is expected given the spectral shape and a pure electrochromic spectral shift. We found changes of +40%/100 mV and −30%/100 mV both for one-photon excitation at 488 nm and two-photon excitation at 976 nm. Preliminary measurements from cultured hippocampal slices using a soluble variant of ANNINE-6 show fast fluorescence changes of up to 8% upon stimulation of the Schaffer collaterals in CA1. • (1) D. Gross, L. M. Loew and W. Webb. Biophys. J., 50: 339-348, 1986.
# [5] = Maximal theoretical sensitivity for excitation in the Boltzmann tail; settings: from shift of 1.6 cm^−1/mV
# Description: A common approximation used for spectral shapes is the log-normal function (Siano and Metzler, 1969), which would imply an ever increasing, in fact, diverging sensitivity toward longer wavelengths and the vanishing of excitation above a wavelength of 591 nm. However, simple considerations predict a tail in the absorption spectrum F that follows a Boltzmann distribution (Hinshelwood, 1940)
# because an electronic transition between the ground and the excited state with the energy difference h ν00c (h Planck constant, ν00 wavenumber of the 00 transition, c light velocity) and an excitation energy h νc ( ν wavenumber of excitation), which is assumed to be below h ν00c, requires additional vibrational energy E=h ν00c−h νc to reach the lowest excited state, in analogy to anti-Stokes lines in scattering theory. […]
# for excitation in the Boltzmann tail (Δμ is the intramolecular charge displacement upon electronic excitation, d is the membrane thickness, θ is the angle between charge displacement and membrane normal). […] For comparison: the highest measured sensitivity value was −0.52±0.05%/mV (with 2-photon excitation at 1040 nm, corresponding to 520 nm). […]
structure (smiles),measurement,setting,value
CCCCN(CCCC)c1ccc2c(ccc3c2ccc2c4cc[n+](CCCCS(=O)(=O)[O-])cc4ccc23)c1 [ANNINE-5],shift of the excitation spectrum per membrane voltage,[1],1.3 cm^−1/mV
CCCCN(CCCC)c1ccc2c(ccc3c2ccc2c4ccc5c[n+](CCCCS(=O)(=O)[O-])ccc5c4ccc32)c1 [ANNINE-6],fluorescence change for large voltage swing,"HEK293 cells [2]; 100 mV depolarization, 514 nm",−28%
same,fluorescence change for large voltage swing,"HEK293 cells [2]; 100 mV depolarization, 1040 nm",−40%
same,fluorescence change for large voltage swing,"HEK293 cells [2]; 100 mV hyperpolarization, 514 nm",50%
same,fluorescence change for large voltage swing,"HEK293 cells [2]; 100 mV hyperpolarization, 1040 nm",70%
same,sensitivity,"HEK293 cells [2]; 515 nm, 1-photon, dye incorporated inside the cells (as expected)",0.37 %/mV
same,sensitivity,"HEK293 cells [2]; 515 nm, 2-photon, dye incorporated inside the cells (as expected)",0.52 %/mV
same,2PE sensitivity higher than 1PE sensitivity at half the wavelength,"HEK293 cells [2]; 976 nm versus 488 nm, same cell",about 20%
same,sensitivity at end of repeated line scans,HEK293 cells [2]; after 900 line scans at 1040 nm over a period of over 2 h,−0.58±0.02 %/mV
same,"slope sensitivity at the resting potential, single cell","HEK293 cells [2]; cell of FIG. 21a, one-photon 458 nm",−0.16 %/mV
same,"slope sensitivity at the resting potential, single cell","HEK293 cells [2]; cell of FIG. 21a, one-photon 488 nm",−0.26 %/mV
same,"slope sensitivity at the resting potential, single cell","HEK293 cells [2]; cell of FIG. 21a, one-photon 514 nm",−0.37 %/mV
same,"slope sensitivity at the resting potential, single cell","HEK293 cells [2]; cell of FIG. 23, two-photon 960 nm",−0.35 %/mV
same,"slope sensitivity at the resting potential, single cell","HEK293 cells [2]; cell of FIG. 23, two-photon 980 nm",−0.41 %/mV
same,"slope sensitivity at the resting potential, single cell","HEK293 cells [2]; cell of FIG. 23, two-photon 1000 nm",−0.49 %/mV
same,"slope sensitivity at the resting potential, single cell","HEK293 cells [2]; cell of FIG. 23, two-photon 1020 nm",−0.54 %/mV
same,"slope sensitivity at the resting potential, single cell","HEK293 cells [2]; cell of FIG. 23, two-photon 1040 nm",−0.59 %/mV
same,sensitivity,"HEK293 cells [2]; excitation wavelength 515 nm, 1-photon, dye at the outer side of the membrane",−0.37 %/mV
same,small-signal fractional fluorescence change (mean sensitivity),"HEK293 cells [2]; one-photon excitation 488 nm, four cells",−0.28 %/mV and −0.28±0.03 %/mV
same,small-signal fractional fluorescence change (mean sensitivity),"HEK293 cells [2]; one-photon excitation 514 nm, four cells",−0.35 %/mV and −0.35±0.03 %/mV
same,sensitivity at begin of repeated line scans,"HEK293 cells [2]; single cell, excitation at 1040 nm",−0.59±0.01 %/mV
same,small-signal fractional fluorescence change (mean sensitivity),"HEK293 cells [2]; two-photon excitation 960 nm, 4 cells",−0.29 %/mV and −0.29±0.05 %/mV
same,mean sensitivity,"HEK293 cells [2]; two-photon excitation 980 nm, 4 cells",−0.35±0.05 %/mV
same,small-signal fractional fluorescence change (mean sensitivity),"HEK293 cells [2]; two-photon excitation 1000 nm, 4 cells",−0.43 %/mV and −0.43±0.05 %/mV
same,mean sensitivity,"HEK293 cells [2]; two-photon excitation 1020 nm, 4 cells",−0.47±0.06 %/mV
same,small-signal fractional fluorescence change (mean sensitivity),"HEK293 cells [2]; two-photon excitation 1040 nm, 4 cells",−0.52 %/mV and −0.52±0.06 %/mV and −0.52±0.05 %/mV
same,mean sensitivity with direct control of membrane voltage,HEK293 cells [3],−0.37±0.02 %/mV
same,relative fluorescence decrease,"HEK293 cells [4]; depolarizing membrane potential changes, 514 nm",more than 40 %/100 mV
same,relative fluorescence increase,"HEK293 cells [4]; hyperpolarizing membrane potential changes, 514 nm",> 60 %/100 mV
same,"relative fluorescence change, negative",HEK293 cells [4]; one-photon excitation 488 nm,−30 %/100 mV
same,"relative fluorescence change, positive",HEK293 cells [4]; one-photon excitation 488 nm,+40 %/100 mV
same,"relative fluorescence change, negative",HEK293 cells [4]; two-photon excitation 976 nm,−30 %/100 mV
same,"relative fluorescence change, positive",HEK293 cells [4]; two-photon excitation 976 nm,+40 %/100 mV
same,Boltzmann-tail sensitivity (theoretical limit),[5],−0.77 %/mV
same,sensitivity in Leech,"[1]; 488 nm, published (Kuhn and Fromherz, 2003)",−0.29 %/mV
same,shift of the excitation spectrum per membrane voltage,[1],1.6 cm^−1/mV
"CCCCCN(CCCCC)c1ccc(/C=C/C=C/c2cc[n+](CCCCS(=O)(=O)[O-])cc2)cc1 [RH-421, reference compound]",shift of the excitation spectrum per membrane voltage,[1],0.5 cm^−1/mV
"CCCCN(CCCC)c1ccc2cc(C=Cc3cc[n+](CCCCS(=O)(=O)[O-])cc3)ccc2c1 [di-4-ANEPBS, reference compound]",shift of the excitation spectrum per membrane voltage,[1],0.9 cm^−1/mV
